Assay results reported in ChEMBL document CHEMBL1149030, “Discobahamins A and B, new peptides from the Bahamian deep water marine sponge Discodermia sp” (1994).
Converted amounts (≈) assume the structure as drawn.

Legend:
Candida albicans [1] = test: Antifungal activity against yeast form of Candida albicans; format: functional
Candida albicans [2] = test: Antifungal activity against mycelial form of Candida albicans; format: functional

MIC (Candida albicans [1]) | MIC (Candida albicans [2]) | SMILES
25 µg/mL (≈ 26.8 µM) | 50 µg/mL (≈ 53.6 µM) | CCC[C@@H](NC(=O)C(O)C(C)CC)C(=O)N[C@H]1CCCNC(=O)[C@H](Cc2c[nH]c3ccc(O)cc23)NC(=O)/C=C/c2coc(n2)[C@H](C)NC(=O)C(=O)[C@H](CC(C)C)NC(=O)[C@@H]2CCCN2C1=O (some centres undefined) [DISCOBAHAMIN A]
25 µg/mL (≈ 26.4 µM) | 50 µg/mL (≈ 52.8 µM) | CCC(C)C(O)C(=O)N[C@H](CC(C)C)C(=O)N[C@H]1CCCNC(=O)[C@H](Cc2c[nH]c3ccc(O)cc23)NC(=O)/C=C/c2coc(n2)[C@H](C)NC(=O)C(=O)[C@H](CC(C)C)NC(=O)[C@@H]2CCCN2C1=O (some centres undefined) [DISCOBAHAMIN B]
